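Grown in 96-well plates, cells were treated for 48 hours with each compound at five concentrations. Insufficient inhibition: endpoint recorded as highest concentration tested. At the GI50, growth is halved.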 Active and inactive are the calls of the source. Cut-off read from the data, not from the text of the source: active = GI50 up to about 1.1 µM and inactive = higher.
How the values were obtained:
Experiment in all cases: NCI tumour cell line growth inhibition, 48 h
[1] = tested on: 786-0
[2] = tested on: RPMI-8226
[3] = tested on: SK-MEL-2
[4] = tested on: NCI-H226
[5] = tested on: SF-295
[6] = tested on: COLO 205
[7] = tested on: HOP-92
[8] = tested on: HCT-15
[9] = tested on: HT-29
[10] = tested on: CCRF-CEM
[11] = tested on: MOLT-4
[12] = tested on: HOP-62
[13] = tested on: SN12C
[14] = tested on: A498
[15] = tested on: SK-OV-3

| SMILES | GI50 [1] | GI50 [2] | GI50 [3] | GI50 [4] | GI50 [5] | GI50 [6] | GI50 [7] | GI50 [8] [µM] | GI50 [9] | GI50 [10] | GI50 [11] | GI50 [12] | GI50 [13] | GI50 [14] | GI50 [15] |
| --- | --- | --- | --- | --- | --- | --- | --- | --- | --- | --- | --- | --- | --- | --- | --- |
| CC[C@@H]1C[C@H]2CC3c4[nH]c5ccc(O)cc5c4CCN(C2)C31 | > 100 µM (inactive) | > 100 µM (inactive) | > 100 µM (inactive) | > 100 µM (inactive) | > 100 µM (inactive) | > 100 µM (inactive) | 36.8 µM (inactive) | > 100 | > 100 µM (inactive) | > 100 µM (inactive) | > 100 µM (inactive) | > 100 µM (inactive) | > 100 µM (inactive) | – | – |
| CC1=Cc2cccc(C)c2C(=O)C1=O [O-HIBISCANONE] | 2.88 µM (inactive) | 1.06 µM (active) | 17.3 µM (inactive) | 15.8 µM (inactive) | 5.14 µM (inactive) | 1.91 µM (inactive) | 1.49 µM (inactive) | 6.11 | 2.79 µM (inactive) | 0.379 µM (active) | 0.52 µM (active) | 17.5 µM (inactive) | 19.5 µM (inactive) | 17.1 µM (inactive) | 18.5 µM (inactive) |
| CCOc1ccccc1/N=C(/NC(=O)CC)SC | > 10 µM (inactive) | 95.9 µM (inactive) | 38.7 µM (inactive) | > 10 µM (inactive) | > 10 µM (inactive) | > 10 µM (inactive) | > 10 µM (inactive) | 52.5 | > 10 µM (inactive) | 64.6 µM (inactive) | 68.4 µM (inactive) | > 10 µM (inactive) | 65.8 µM (inactive) | > 10 µM (inactive) | > 10 µM (inactive) |
| O=c1/c(=C/c2ccccc2F)sc2nc3ccccc3n12 | > 100 µM (inactive) | > 100 µM (inactive) | > 100 µM (inactive) | > 100 µM (inactive) | > 100 µM (inactive) | – | > 100 µM (inactive) | > 100 | > 100 µM (inactive) | > 100 µM (inactive) | > 100 µM (inactive) | – | > 100 µM (inactive) | > 100 µM (inactive) | – |
| O=C(CC1(O)C(=O)Nc2ccccc21)c1ccc(Cl)c(Cl)c1 (stereo not drawn) | > 100 µM (inactive) | > 100 µM (inactive) | > 100 µM (inactive) | > 100 µM (inactive) | > 100 µM (inactive) | > 100 µM (inactive) | > 100 µM (inactive) | > 100 | > 100 µM (inactive) | 63.8 µM (inactive) | > 100 µM (inactive) | – | > 100 µM (inactive) | > 100 µM (inactive) | > 100 µM (inactive) |
| CCn1c2c(c3ccccc31)[C@@H](c1ccc(Cl)cc1)CC1C(=O)N(c3ccccc3)C(=O)C21 (stereo partly drawn) | > 100 µM (inactive) | 65 µM (inactive) | 91.8 µM (inactive) | 45.6 µM (inactive) | 59.3 µM (inactive) | > 100 µM (inactive) | 27.7 µM (inactive) | > 100 | 65.5 µM (inactive) | 63.2 µM (inactive) | 42.7 µM (inactive) | 85.5 µM (inactive) | 75.5 µM (inactive) | 69.7 µM (inactive) | > 100 µM (inactive) |
| CC1=NOC(=O)/C1=C/c1ccccc1O | > 100 µM (inactive) | – | > 100 µM (inactive) | > 100 µM (inactive) | > 100 µM (inactive) | > 100 µM (inactive) | > 100 µM (inactive) | > 100 | > 100 µM (inactive) | > 100 µM (inactive) | > 100 µM (inactive) | > 100 µM (inactive) | > 100 µM (inactive) | – | > 100 µM (inactive) |
| C=CCNC(=S)N1CC(C)C(=O)Nc2cc(Cl)ccc21 (stereo not drawn) | > 100 µM (inactive) | > 100 µM (inactive) | > 100 µM (inactive) | 54.2 µM (inactive) | > 100 µM (inactive) | > 100 µM (inactive) | > 100 µM (inactive) | > 100 | > 100 µM (inactive) | – | > 100 µM (inactive) | > 100 µM (inactive) | > 100 µM (inactive) | > 100 µM (inactive) | > 100 µM (inactive) |
| C/N=C1\CC2c3cc(OC)c(OC)cc3CCN2C2=C1C(=O)CC(C)(C)C2 (stereo not drawn) | > 100 µM (inactive) | – | > 100 µM (inactive) | > 100 µM (inactive) | > 100 µM (inactive) | > 100 µM (inactive) | > 100 µM (inactive) | > 10 | > 100 µM (inactive) | > 100 µM (inactive) | > 100 µM (inactive) | – | > 100 µM (inactive) | > 100 µM (inactive) | – |
| NN/C(Cc1ccccc1)=N\NO | > 100 µM (inactive) | – | > 100 µM (inactive) | > 100 µM (inactive) | > 100 µM (inactive) | > 100 µM (inactive) | > 100 µM (inactive) | 26.8 | > 100 µM (inactive) | 39.8 µM (inactive) | > 100 µM (inactive) | – | – | > 100 µM (inactive) | – |
| Cc1nc(-c2nc(C)c(C(=O)NN(C)C)s2)sc1C(=O)NN(C)C | 30.7 µM (inactive) | 28.8 µM (inactive) | > 100 µM (inactive) | > 100 µM (inactive) | > 100 µM (inactive) | 21.7 µM (inactive) | > 100 µM (inactive) | 67.9 | > 100 µM (inactive) | 31.2 µM (inactive) | 44.1 µM (inactive) | > 100 µM (inactive) | > 100 µM (inactive) | > 100 µM (inactive) | > 100 µM (inactive) |
| N#Cc1ccccc1NC(=O)C(=O)C1NC(=S)NC1=O (stereo not drawn) | > 100 µM (inactive) | > 100 µM (inactive) | – | > 100 µM (inactive) | > 100 µM (inactive) | > 100 µM (inactive) | > 100 µM (inactive) | > 100 | > 100 µM (inactive) | > 100 µM (inactive) | > 100 µM (inactive) | > 100 µM (inactive) | > 100 µM (inactive) | > 100 µM (inactive) | – |
| COc1cc(/C=C2\[C@H]3c4c(c(OC)c(C)c(OC)c4OC)C[C@@H](C(=O)N2Cc2ccccc2)N3C(=O)OCC(C)C)c(OC)c(C)c1OC | > 100 µM (inactive) | 13.6 µM (inactive) | > 100 µM (inactive) | 1.16 µM (inactive) | > 100 µM (inactive) | > 86.3 µM (inactive) | 2.99 µM (inactive) | > 100 | > 84.5 µM (inactive) | 33.6 µM (inactive) | 12.3 µM (inactive) | > 100 µM (inactive) | > 100 µM (inactive) | > 65.9 µM (inactive) | > 100 µM (inactive) |
| CC(=O)Nc1ccc(C(=O)NN2C(=O)C(Cl)C2c2ccc(O)cc2)cc1 (stereo not drawn) | 72.4 µM (inactive) | – | > 100 µM (inactive) | > 100 µM (inactive) | > 100 µM (inactive) | > 100 µM (inactive) | – | > 100 | > 100 µM (inactive) | > 100 µM (inactive) | > 100 µM (inactive) | 57.9 µM (inactive) | > 100 µM (inactive) | > 100 µM (inactive) | > 100 µM (inactive) |
| O=C(CC1(O)C(=O)Nc2c(Cl)cc(Cl)cc21)c1ccccc1 (stereo not drawn) | > 100 µM (inactive) | 31.3 µM (inactive) | > 100 µM (inactive) | > 100 µM (inactive) | 52.6 µM (inactive) | > 100 µM (inactive) | > 100 µM (inactive) | 80.9 | 31.6 µM (inactive) | – | 33.6 µM (inactive) | – | > 100 µM (inactive) | > 100 µM (inactive) | > 100 µM (inactive) |
| C=CCc1cc(OC)c2c(c1)C(OC)CC(c1ccc(OC)c(OC)c1)O2 (stereo not drawn) | > 100 µM (inactive) | 38 µM (inactive) | > 100 µM (inactive) | – | > 100 µM (inactive) | > 100 µM (inactive) | – | 61.5 | > 100 µM (inactive) | > 100 µM (inactive) | 45.5 µM (inactive) | > 100 µM (inactive) | > 100 µM (inactive) | > 100 µM (inactive) | > 100 µM (inactive) |
| CC1=C(c2cc(C(=O)Nc3cc(C)ccc3C)nc(N)n2)Sc2ccccc2N1 | > 100 µM (inactive) | > 100 µM (inactive) | > 100 µM (inactive) | > 100 µM (inactive) | > 100 µM (inactive) | > 100 µM (inactive) | > 100 µM (inactive) | > 100 | > 100 µM (inactive) | > 100 µM (inactive) | > 100 µM (inactive) | > 100 µM (inactive) | > 100 µM (inactive) | > 100 µM (inactive) | > 100 µM (inactive) |
| COc1c(C)cc2c(C(C)C)c(O)c(O)c(C=O)c2c1O | 26.4 µM (inactive) | 37.9 µM (inactive) | 15.8 µM (inactive) | 18.2 µM (inactive) | 28.8 µM (inactive) | 16.4 µM (inactive) | 35.3 µM (inactive) | 24.5 | 13.3 µM (inactive) | 18.4 µM (inactive) | 55.7 µM (inactive) | – | 27.7 µM (inactive) | – | 29.9 µM (inactive) |
| CC1(C)CC(=O)c2c(oc3cc(O)c(O)cc23)C1 | 26.3 µM (inactive) | 17.5 µM (inactive) | 26.7 µM (inactive) | – | 43.3 µM (inactive) | 36.6 µM (inactive) | 36.3 µM (inactive) | 25.4 | 53 µM (inactive) | 9.84 µM (inactive) | 21.3 µM (inactive) | 41.4 µM (inactive) | 39.5 µM (inactive) | 39 µM (inactive) | > 100 µM (inactive) |
| CC(=O)NC(CCCCN)C(=O)NCc1ccccc1 (stereo not drawn) | > 100 µM (inactive) | > 100 µM (inactive) | > 100 µM (inactive) | > 100 µM (inactive) | > 100 µM (inactive) | > 100 µM (inactive) | > 100 µM (inactive) | > 100 | > 100 µM (inactive) | > 100 µM (inactive) | > 100 µM (inactive) | > 100 µM (inactive) | > 100 µM (inactive) | > 100 µM (inactive) | > 100 µM (inactive) |

From ChEMBL document CHEMBL1201862, “PubChem BioAssay data set” (2004)
